In US4423039A, “Disaggregated solutions of polypeptides, their preparation and use” (The Hospital for Sick Children, priority 1980, dated 1983):

Experiments:
[1] = target: T1, zinc insulin crystals (Sus scrofa, UniProt P01315); experiment: dissolution times of zinc insulin crystals exposed to test solutions (microscope slide assay); type: physicochemical, pork
T1 construct: measures the dissolution times of zinc insulin crystals
Method: (§1) The test involved transferring pork insulin crystals to a clean microscope slide using the tip of a 25 G needle so that 10 to 30 crystals were distributed in the field of view. A 25 μl aliquot of the test solution was pipetted to form a small droplet which covered the crystals. […] The pH's of the test solutions were measured and the former were adjusted where appropiate to pH 7.5 using 1 N NaOH or 1 N HCl.

[2] = target: glucagon (Homo sapiens, UniProt P01275); experiment: dissolution of glucagon crystals in test solutions (tested as for insulin); type: physicochemical; conditions: 150 mmol solution (pH 7.5) in distilled water
Method: as §1

[3] = target: Neutral pork insulin (Sus scrofa, UniProt P01315); conditions: 2.5, 25, 250 and 2,500 mmolar; 5 U/ml neutral pork insulin, 0.1 g copper per 10 ml, shaken at 37° C., pH 7.5, triplicate
Method: Biostatic water was used as the diluent. Neutral pork insulin was added to each to give a final concentration of 5 U/ml. To each sterile 10 ml vial 0.1 g of copper was added. Control vials were prepared exactly as above but no bicarbonate was added. The vials were aggitated on an Eberback shaker at 37° C. The experiment was run in triplicate at pH 7.5.

[4] = test solution 150 mmol/l, pH 7.5, 25 μl droplet on pork zinc insulin crystals

T1 sequence (P01315 25-54 limits assumed): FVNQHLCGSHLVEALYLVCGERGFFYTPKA
T1 sequence (P01315 88-108 limits assumed): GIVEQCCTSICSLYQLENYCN
Chain of glucagon (P01275 53-81 limits assumed, species assumed): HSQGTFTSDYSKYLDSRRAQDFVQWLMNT
Chain of Neutral pork insulin (P01315 25-54 limits assumed): as the sequence (P01315 25-54 limits assumed) above

| Dissolution Time ± SEM [1, 4] [s] | Dissolution Time ± SEM ([1]; test solution 25 mmol/l, pH 7.5) [s] | dissolution time of glucagon [2] [s] | time vials remained clear (no aggregation) to date [3] [days] | Structure (SMILES) | fraction of insulin crystals dissolved at 300 sec ([1]; 25 mmol/l, at 300 sec) [%] |
| --- | --- | --- | --- | --- | --- |
| > 1200 | – | – | – | CC(O)C(=O)O (stereo not shown) [Lactic Acid] | – |
| 50 ± 5 | 360 ± 20 | 45 ± 12 | ≥ 35 | O=C([O-])O.[Na+] [Sodium Bicarbonate] | – |
| – | – | – | – | NC(N)=O [Urea] | 20 |

| Structure (SMILES) | Dissolution Time ± SEM [1, 4] [s] | Dissolution Time ± SEM ([1]; test solution 25 mmol/l, pH 7.5) [s] | dissolution time of glucagon [2] [s] | time vials remained clear (no aggregation) to date [3] [days] | fraction of insulin crystals dissolved at 300 sec ([1]; 25 mmol/l, at 300 sec) [%] |
| --- | --- | --- | --- | --- | --- |
| O=CO [Formic Acid] | > 1200 | – | – | – | – |
